These are literature values, as cited in patent US7740874B2, “Method of making a lanolin free absorption base” (Quintessa Corporation, priority 2002, dated 2010).

For the data set the following is noted: hydrophilic-lipophilic balance.

As for methyl glucose dioleate [emulsifier], the HLB is given as 5.
